Assay results taken from patent US4442031A, “Immunopotentiating peptides” (Hoffmann-La Roche Inc., priority 1983, dated 1984).
Where no end group is shown, it is not given here.

Experiments:
[1] = system: Pseudomonas aeruginosa 5E81-1; assay: Protection against Pseudomonas aeruginosa infection in 5-FU immunosuppressed mice; type: in vivo; details: Table 7, i.p., 5-FU immunosuppressed mice, control 0/30
Description: (§1) Normal mice (female ddY mice, 6 weeks old) were highly tolerant to infection with Candida albicans ATCC 10231 at relatively low dose (1-2×10^5 cells, iv.). However, when pretreated daily for ten times with 5-FU (25 mg/kg/day, ip.), the mice were susceptible to infection as shown in Table 6. […] Compound A was also shown to be active against infection with Pseudomonas aeruginosa 5E81-1 and Listeria monocytogenes EGD in the immunosuppressed mice (see Tables 7 and 8).

[2] = system: P388 leukemia; assay: Protective activity against P388 leukemia growth in 5-FU immunosuppressed mice; type: in vivo; details: for Mean Survival days (days ± S.D.): CDF1 mice, 5-FU +, P388 +, 5-FU + saline 4.1
Description: The treatment with cytostatic agents often decreases immunocompetence and consequently increases incidence of metastasis of tumor in cancer patients. […] In the experiment shown in Table 10, male CDF1 mice (6 week old) were treated daily for 8 times with or without 5-FU (28 mg/kg/day ip.) and then transplanted subcutaneously with P388 leukemic cells (3×10^5) into footpad 24 hours later. When pretreated with 5-FU, mice died very quickly at 4 days, while normal mice survived about 23 days after the transplant. […] Thymosin α1 and compound A may improve the immunodefense system against metastatic tumor growth in cancer patients who are receiving immunosuppressive chemotherapy. In combination with thymosin α1 or compound A, more extensive cancer chemotherapy for a longer duration may be possible.
^(1) CDF1 mice were pretreated daily for 8 times from Day 8 to
with 5FU (28 mg/kg/day, ip.).
^(2) Thymosin α1 or Compound A were administered daily for
14 times from Day 8 to 5 by ip. route.
^(3) P388 leukemic cells (3 × 10^5) were inoculated into
^(4) Survival days after the inoculation of the leukemic cells.

[3] = system: Listeria monocytogenes EGD; assay: Protection against Listeria monocytogenes infection in 5-FU immunosuppressed mice; type: in vivo; details: Table 8, i.p., 5-FU immunosuppressed mice, control 2/10
Description: as §1

[4] = system: delayed-type hypersensitivity (DTH); assay: Restoration of delayed-type hypersensitivity (DTH) decreased by 5-FU in BDF1 mice; type: in vivo; details: for DTH response %: % of control
Description: A poor prognosis is often observed in cancer patients with impaired immune response. Impaired immune response can be caused by the cancer itself, by chemotherapeutic agents, or by radiotherapy. Thus, therapeutic agents which restore impaired immune response in cancer patients are expected to play an important role in combination therapy. The restoration activity of the compounds of the invention on impaired cell-mediated immunity was determined by measuring the enhancement of delayed-type hypersensitivity (DTH), which was decreased to a great extent in mice treated with 5-fluorouracil (5-FU).
Female BDF1 mice (20-22 g, 11-12 weeks old) received (i.p. or p.o.) the compound to be tested on consecutive days one day before, concurrently with and 1 and 2 days after the 5-FU treatment. For DTH measurement, 10^8 chicken red blood cells (CRBC) were injected i.p. (or s.c. into the left hind footpad) and challenged s.c. into the right hind footpad at 3 and 7 days after the 5-FU treatment, respectively. Restoration activity was calculated by the following formula from the DTH response observed in the control group, 5-FU treated group treatment and the Test group treated both with 5-FU and the compound of the invention. Restoration activity was calculated by the formula: [formula]

[5] = system: Candida albicans ATCC 10231; assay: Protective activity against Candida albicans infection in 5-FU immunosuppressed mice; type: in vivo; details: for Survivors Day 8 / Survivors Day 15: ddY mice
Description: In a series of examples, the compounds of formula I were tested for protective activity against opportunistic infections in immunosuppressed mice. Female ddY mice (6 weeks old) weighing about 26 g were pretreated daily for ten days with 5-fluorouracil (5-FU) (25 mg/kg/day, i.p.) and with thymosin α1 or with compounds of formula I (i.p.) at varying dosages. The mice were then infected with Candida albicans ATCC 10231 (1×10^5 cells or more) at 24 hour after the last treatment. One control group was administered 5-FU and saline solution and a second control group received neither 5-FU nor compound of formula I prior to infection with Candida albicans. The number of animals surviving eight days after infection with Candida albicans and 15 days after infection with Candida albicans is presented in the table below.
as §1

[6] = Restoration of thymus weight decreased by 5-FU injection; type: in vivo, mice; details: for Av. thymus weight mg: 8 days after 5-FU, control 39.4, 5-FU alone 23.4; for Av. thymus weight %: % of control; for Restoration Activity(%): thymus weight
Description: It is known that anticancer drugs suppress immunological functions by affecting immunocytes. The thymus gland, which is essential for differentiation, maturation and supply to T-cells responsible for immunological reactions, decreases markedly in weight after injection of 5-FU. […] FIfty μg/kg of Compound A administered orally was as effective as 5 μg/kg of thymosin α1 injected intraperitoneally, when the thymus weight was measured immediately after the DTH measurement at 8 days after the 5-FU injection (see Table 5).
*Seven mice per group received the test compound one day before,
concurrently with, and 1 and 2 days after 5FU injection i.p. (100 mg/kg).
The mice were injected CRBC for The DTH assay at 3 and 7 days after the
The thymus weight was measured at 8 days after the 5FU injection.

[7] = Table 2, 5-FU plus 0.5 μg/kg/day, i.p.
[8] = Table 2, 5-FU plus 5.0 μg/kg/day, i.p.
[9] = Table 3, first experiment, 5-FU plus 5.0 μg/kg/day, i.p.
[10] = Table 4, 5-FU plus 5.0 μg/kg/day i.p.
[11] = Example 8, 40.0 μg/kg i.p. daily for ten days with 5-FU
[12] = Example 10, 0.4 μg/kg i.p. daily for ten days with 5-FU
[13] = Example 10, 4.0 μg/kg i.p. daily for ten days with 5-FU
[14] = Example 10, 40.0 μg/kg i.p. daily for ten days with 5-FU
[15] = Example 11, 4.0 μg/kg i.p. daily for ten days with 5-FU
[16] = Example 11, 40.0 μg/kg i.p. daily for ten days with 5-FU
[17] = Example 11, 400.0 μg/kg i.p. daily for ten days with 5-FU

Substance: thymosin α1 (SDAAVDTSSEITTKDLKEKKEVVEEAEN; ends and bridges not checked; UniProt P01252 2-29, looked up) [peptide isolated from bovine thymus, stimulates maturation, differentiation and function of T cells; U.S. Pat. No. 4,079,127, reference compound]
- Survivors at Day 15 after infection ([1]; 0.4 μg/kg/day): 7/20
- Survivors at Day 15 after infection ([1]; 4 μg/kg/day): 12/30
- Survivors at Day 15 after infection ([1]; 40 μg/kg/day): 16/30
- Mean Survival days (days ± S.D.) ([2]; 4 μg/kg/day ip. 14 times): 17.6 ± 8.2 days
- Mean Survival days (days ± S.D.) ([2]; 40 μg/kg/day ip. 14 times): 20.7 ± 2.8 days
- survival days (in words) ([2]; daily treatment in addition to 5-FU, 8 times before and 6 times after the transplant): increased the survival days to the level similar to that obtained in normal mice
- Survivors at Day 15 after infection ([3]; 4 μg/kg/day): 7/10
- Survivors at Day 15 after infection ([3]; 40 μg/kg/day): 5/10
- Restoration Activity(%) [4, 7]: 1.3%
- DTH response % [4, 7]: 56.0%
- DTH response av. ± S.E. (0.1 mm) ([4]; Table 2, 5-FU plus 0.5 μg/kg/day, i.p., control 10.3, 5-FU alone 5.7): 5.8 ± 1.1 0.1 mm
- Restoration Activity(%) [4, 8]: 50.3%
- DTH response % [4, 8]: 77.8%
- DTH response av. ± S.E. (0.1 mm) ([4]; Table 2, 5-FU plus 5.0 μg/kg/day, i.p., control 10.3, 5-FU alone 5.7): 8.0 ± 1.2 0.1 mm
- DTH response av. ± S.E. (0.1 mm) ([4]; Table 3, first experiment (control 8.5, 5-FU alone 4.8), 5-FU plus 5.0 μg/kg/day, i.p.): 7.3 ± 0.8 0.1 mm
- Restoration Activity(%) [4, 9]: 68.7%
- DTH response % [4, 9]: 86.3%
- DTH response av. ± S.E. (0.1 mm) ([4]; Table 4 (control 7.7, 5-FU alone 5.6), 5-FU plus 0.5 μg/kg/day i.p.): 5.4 ± 1.2 0.1 mm
- DTH response av. ± S.E. (0.1 mm) ([4]; Table 4 (control 7.7, 5-FU alone 5.6), 5-FU plus 5.0 μg/kg/day i.p.): 7.3 ± 0.8 0.1 mm
- DTH response % ([4]; Table 4, 5-FU plus 0.5 μg/kg/day i.p.): 70.1%
- Restoration Activity(%) [4, 10]: 81.0%
- DTH response % [4, 10]: 94.8%
- Survivors Day 8 [5, 11]: 5/7
- Survivors Day 15 [5, 11]: 5/7
- Survivors Day 8 ([5]; Example 9, 40.0 μg/kg i.p. daily for ten days with 5-FU): 4/7
- Survivors Day 8 [5, 12]: 3/10
- Survivors Day 15 [5, 12]: 3/10
- Survivors Day 8 [5, 13]: 6/10
- Survivors Day 15 [5, 13]: 5/10
- Survivors Day 8 [5, 14]: 9/10
- Survivors Day 15 [5, 14]: 8/10
- Survivors Day 8 [5, 15]: 3/10
- Survivors Day 15 [5, 15]: 3/10
- Survivors Day 8 [5, 16]: 6/10
- Survivors Day 15 [5, 16]: 5/10
- Survivors Day 8 [5, 17]: 8/10
- Survivors Day 15 [5, 17]: 8/10
- Survivors at Day 8 after infection ([5]; Table 6, 40 μg/kg/day, i.p., ten times with 5-FU, control 1/7): 4/7
- Av. thymus weight mg ([6]; 5-FU (100 mg/kg i.p.) plus 0.5 μg/kg/day i.p.): 24.9 ± 1.7 mg
- Av. thymus weight mg ([6]; 5-FU (100 mg/kg i.p.) plus 5.0 μg/kg/day i.p.): 26.7 ± 1.1 mg
- Av. thymus weight % ([6]; 5-FU plus 0.5 μg/kg/day i.p.): 63.2%
- Av. thymus weight % ([6]; 5-FU plus 5.0 μg/kg/day i.p.): 67.8%
- Restoration Activity(%) ([6]; 5-FU plus 0.5 μg/kg/day i.p.): 9.4%
- Restoration Activity(%) ([6]; 5-FU plus 5.0 μg/kg/day i.p.): 20.6%
